Laboratory results from article PMC5748754, “Elucidating the Skin Delivery of Aglycone and Glycoside Flavonoids: How the Structures Affect Cutaneous Absorption” (Nutrients, 2017).
≈ marks a conversion by molar mass, not a printed value. Where “and” joins values, the source holds several entries; their conditions need not be identical. Identical values can stand only once. Entries after “also recorded” stand apart in the source; their conditions may differ.

Columns and labels:
[1] = Partition coefficient (log P), n-octanol/water; format: physicochemical; conditions: 37 °C
Experimental: Flavonoids in methanol (0.5 mg/mL) were pipetted into a tube at a volume of 1 mL. Methanol was then evaporated under vacuum. In the amount of 1 mL of each, n-Octanol and water were incorporated into the tube. After being shaken for 24 h at 37 °C, the tube was centrifugated at 10,000× g for 10 min. The flavonoid content in both phases was analyzed by HPLC. The log P was calculated as log (flavonoid content in n-octanol/flavonoid content in water).

[2] = Franz cell skin deposition in SC-disrupted nude mouse skin; format: in vitro ADME; conditions: 6 mM; for skin deposition after the SC's removal / Skin deposition, fold versus intact skin (SC-stripping): SC-stripped nude mouse skin
Experimental: The full-thickness dorsal skin of the nude mouse was excised after sacrifice. The SC-stripped skin was obtained by stripping the skin surface 20 times with adhesive tape (Scotch®, 3M, Maplewood, MN, USA). The delipidized skin was achieved by incubating the skin surface onto a chloroform/methanol solution (2:1) for 2 h. To prepare the desebumed skin, the SC side of the skin was washed with cold hexane (4 °C) five times, based on the procedure of the previous study. The skin’s surface was then treated with a 40% ethanol/water solution for 2 h, a process that successfully denatured the skin’s proteins.
(§1) The cutaneous absorption of flavonoids was assessed using a Franz diffusion cell system. The excised animal skin or cellulose membrane was mounted between the donor and receptor compartments with the SC facing up toward the donor. The receptor was filled with 30% ethanol/pH 7.4 buffer and placed on a magnetic stirring plate. The effective permeation area of the cell was 0.785 cm^2. The stirring rate and temperature of the receptor were 600 rpm and 37 °C, respectively. Saturated solution or a 6 mM flavonoid suspension was prepared in 20% PEG400/pH 7.4 buffer to be loaded into the donor compartment. A 300-µL aliquot in the receptor was collected at determined durations, followed by an immediate replacement with fresh receptor medium. The amount of flavonoid in the receptor was determined by HPLC. The skin was removed from the cell after a 24-h application. After being washed with water, the skin sample was weighed and positioned in a vial with 1 mL methanol. MagNA Lyser (Roche) was used to homogenize the skin. The homogenate was centrifuged at 10,000× g for 10 min. The supernatant was analyzed by HPLC to quantify the flavonoid deposition in the skin reservoir.

[3] = Capacity factor (log K') by HPLC; format: physicochemical; conditions: HPLC C18, methanol/pH 2 phosphate buffer 1:1
Experimental: The HPLC setup for the calculation of log K’ was an HPLC system (7-series, Hitachi, Tokyo, Japan) with a LiChrospher® C18 column (200 × 4.6 mm, Merck, Darmstadt, Germany). The mobile phase consisted of a mixture of methanol and pH 2 phosphate buffer solution (1:1). The flow rate and wavelength for determination were 1 mL/min (L-7110 pump) and 256 nm (L-7455 diode array detector), respectively. The retention times of flavonoids were detected, and the log K’ was computed as log [(tr − t0)/t0], where tr and t0 were the retention time of the flavonoid and the nonretained solvent peak, respectively.

[4] = In vitro Franz cell skin absorption, nude mouse skin; format: in vitro ADME; conditions: for S value (CSD/PC) / S value (skin deposition/flux) / flux: the sentence does not separate nude mouse and pig skin; for selectivity ratio at 24 h, 6 mM / skin deposition: nude mouse skin; for selectivity ratio at 24 h, 6 mM: read-out: S value (dermal/transdermal selectivity index, skin deposition/flux); for skin deposition: equivalent dose 6 mM, 24 h; for selectivity ratio at 24 h, 6 mM / S value (skin deposition/flux) / flux: dose 6 mM
Experimental: as §1
In the cutaneous absorption experiment, flavonoid deposition in the skin was estimated as the molar amount per mg of skin (nM/mg). In the case of the skin deposition from the saturated solution, the calibrated skin deposition (CSD) was measured as flavonoid deposition divided by the applied dose (saturated solubility). The flux (nM/cm^2/h) was estimated by the slope of the penetrated amount–time curve. The permeability coefficient (PC) was calculated from the flux divided by the saturated solubility of the flavonoids. The dermal/transdermal selectivity index (S value) was calculated using an equation of skin deposition/flux (for equivalent dose application) or CSD/PC (for saturated dose application).

[5] = tested on: fMLF-activated human neutrophils (O2•– release); experiment: Superoxide anion (O2•–) inhibition in fMLF-activated human neutrophils; format: cell-based; conditions: flavonoids at 3 µM, fMLF/cytochalasin B-activated human neutrophils; for inhibition at 3 µM: Homo sapiens, Neutrophil
Description: (§2) The protocol was approved by the Institutional Review Board at Chang Gung Memorial Hospital, and written informed consent was obtained from all volunteers (201600500B0C101). Whole blood was withdrawn from healthy volunteers between 20 and 30 years of age. Human neutrophils were isolated using a typical method of dextran sedimentation prior to centrifugation in a Ficoll-Hypaque gradient and hypotonic lysis of erythrocytes. The granulocyte layer was harvested and suspended in calcium-free HBSS at pH 7.4, which was maintained at 4 °C until use.
(§3) The reduction of ferricytochrome c was utilized for measuring the superoxide anion (O2^•–) release from the neutrophils. The human neutrophils (6 × 10^5 cells/mL) were incubated with 0.5 mg/mL ferricytochrome c and 1 mM CaCl2 at 37 °C, and were then treated with flavonoids (3 µM) in DMSO for 10 min. Neutrophils were stimulated by adding 0.1 µM fMLF with cytochalasin B (1 µg/mL). The reduction of ferricytochrome c was monitored by the absorbance at 550 nm using a U3010 ultraviolet/visible spectrophotometer (Hitachi, Tokyo, Japan). The human neutrophils were equilibrated with an elastase substrate (MeO-Suc-Ala-Ala-Pro-Val-p-nitroanilide, 100 µM) at 37 °C for 2 min. Flavonoids at a concentration of 3 µM were added into the neutrophil suspension for 10 min. The cells were activated by fMLF and cytochalasin B for a further 10 min. Elastase release was detected by measuring the change of absorbance at 405 nm.

[6] = Saturated solubility in 20% PEG400/pH 7.4 buffer; format: physicochemical; conditions: for solubility at 2 h: aqueous with cosolvent or surfactant or cyclodextrin, thermodynamic from solid, 20% PEG400/pH 7.4 buffer, 37 °C
Experimental: The suspension was then centrifuged at 10,000× g for 10 min. The supernatant was filtered across the polyvinylidene fluoride membrane with a pore size of 0.45 µm. The resulting supernatant was analyzed by HPLC to record the solubility (mM).

[7] = tested on: fMLF-activated human neutrophils (elastase release); experiment: Elastase release inhibition in fMLF-activated human neutrophils; format: cell-based; conditions: flavonoids at 3 µM, fMLF/cytochalasin B-activated human neutrophils; for inhibition at 3 µM: Neutrophil
Description: as §2, §3

[8] = In vitro Franz cell skin absorption, pig skin; format: in vitro ADME; conditions: read-out: S value (dermal/transdermal selectivity index, skin deposition/flux)
Experimental: as §1, with “After being washed with water, the skin sample was weighed and positioned in a vial with 1 mL methanol. MagNA Lyser (Roche) was used to homogenize the skin. The homogenate was centrifuged at 10,000× g for 10 min.” left out
In the cutaneous absorption experiment, flavonoid deposition in the skin was estimated as the molar amount per mg of skin (nM/mg). In the case of the skin deposition from the saturated solution, the calibrated skin deposition (CSD) was measured as flavonoid deposition divided by the applied dose (saturated solubility). […] The permeability coefficient (PC) was calculated from the flux divided by the saturated solubility of the flavonoids. […]

[9] = In vivo cutaneous tolerance (TEWL, histology) on nude mouse back; conditions: 6 mM topically daily for 7 days; for histology: SC layers: H&E, versus vehicle control; for ΔTEWL (treated skin minus aqueous vehicle control): nude mouse back
Experimental: The 20% PEG400/pH 7.4 buffer loaded with flavonoids at 6 mM was topically applied daily (0.6 mL) on the nude mouse back for 7 days. The flavonoid-containing vehicle was replaced with a new one each day. After removal of the vehicle, the treated skin region was evaluated by Tewameter TM300 (Courage and Khazaka, Köln, Germany) to determine the transepidermal water loss (TEWL). Stained by hematoxylin and eosin (H&E), the treated skin was excised for histological examination after a 7-day flavonoid application.

[10] = saturated solubility dose, skin type not separated

O=c1cc(-c2ccccc2)oc2cc(O)c(O)c(O)c12 [Baicalein]
logP at 24 h [1]: 3.59 ± 0.08 | skin deposition after the SC's removal [2]: 0.2 nM/mg | log K’ [3]: 0.73 | calibrated skin deposition (CSD) [4, 10]: below the quantification limit | S value (CSD/PC) ([4]; saturated solubility dose): 0 | inhibition at 3 µM [5]: 77% | O2^•– Inhibition ([5]; 3 µM): 77.48 ± 5.27% | solubility at 2 h [6]: 7.7 ± 1.9 µM (≈ 2.08 µg/mL) | inhibition at 3 µM [7]: 12.2 ± 2.15%

O=C(O)[C@H]1O[C@@H](Oc2cc3oc(-c4ccccc4)cc(=O)c3c(O)c2O)[C@H](O)[C@@H](O)[C@@H]1O [Baicalin]
logP at 24 h [1]: 0.89 ± 0.02 | log K’ [3]: 0.42 | inhibition at 3 µM [5]: 77% | O2^•– Inhibition ([5]; 3 µM): 75.73 ± 6.21% | O2^•– Inhibition ([5]; listed as baicalin, 3 µM): 76% | solubility at 2 h [6]: 5320 ± 150 µM (≈ 2370 µg/mL) | inhibition at 3 µM [7]: 0% | Elastase Inhibition [7]: did not change

O=c1c(O)c(-c2ccc(O)cc2)oc2cc(O)cc(O)c12 [Kaempferol]
selectivity ratio at 24 h, 6 mM [8]: 1.5 | selectivity ratio at 24 h, 6 mM [4]: 2.7 | skin deposition [4]: 0.11 nM/mg | permeability coefficient (PC) [4, 10]: neglected | S value (CSD/PC) ([4]; saturated solubility dose): infinity | solubility at 2 h [6]: 190 ± 4.7 µM (≈ 54.4 µg/mL) | histology: SC layers [9]: SC layers could be recovered | ΔTEWL (treated skin minus aqueous vehicle control) [9]: reduced TEWL as compared to the vehicle control; also recorded: alleviated ΔTEWL

O=c1c(O)c(-c2cc(O)c(O)c(O)c2)oc2cc(O)cc(O)c12 [Myricetin]
logP at 24 h [1]: 3.18 ± 0.07 | Skin deposition, fold versus intact skin (SC-stripping) [2]: > 30 x | skin deposition after the SC's removal [2]: 0.4 nM/mg | log K’ [3]: 0.34 | S value (skin deposition/flux) [4]: ∞ | flux [4]: near zero | permeability coefficient (PC) [4, 10]: neglected | S value (CSD/PC) ([4]; saturated solubility dose): infinity | inhibition at 3 µM [5]: 42.1 ± 6.22% | solubility at 2 h [6]: 530 ± 10 µM (≈ 169 µg/mL) | inhibition at 3 µM [7]: 16.8 ± 4.76%

O=C1C[C@@H](c2ccc(O)cc2)Oc2cc(O)cc(O)c21 [Naringenin]
skin deposition [4]: 0.37 nM/mg | fold more soluble than baicalein ([6]; PEG400/pH 7.4 buffer solution): 470 fold | solubility at 2 h [6]: 3620 ± 280 µM (≈ 986 µg/mL) | histology: SC layers [9]: SC layers could be recovered | ΔTEWL (treated skin minus aqueous vehicle control) [9]: reduced TEWL as compared to the vehicle control | ΔTEWL (treated skin minus aqueous vehicle control) ([9]; listed as naringenin): alleviated ΔTEWL

C[C@@H]1O[C@@H](O[C@H]2[C@H](Oc3cc(O)c4c(c3)O[C@H](c3ccc(O)cc3)CC4=O)O[C@H](CO)[C@@H](O)[C@@H]2O)[C@H](O)[C@H](O)[C@H]1O [Naringin]
solubility at 2 h [6]: > 20000 µM | histology: SC layers [9]: SC layers could be recovered

O=c1c(O)c(-c2ccc(O)c(O)c2)oc2cc(O)cc(O)c12 [Quercetin]
Skin deposition, fold versus intact skin (SC-stripping) [2]: > 30 x | skin deposition after the SC's removal [2]: 1.2 nM/mg | Skin deposition, fold versus intact skin (Protein removal) ([2]; deproteinized nude mouse skin): failed to change | S value (skin deposition/flux) [4]: ∞ | flux [4]: near zero | permeability coefficient (PC) [4, 10]: neglected | S value (CSD/PC) ([4]; saturated solubility dose): infinity | solubility at 2 h [6]: 380 ± 2.5 µM (≈ 115 µg/mL)

C[C@@H]1O[C@@H](OC[C@H]2O[C@@H](Oc3c(-c4ccc(O)c(O)c4)oc4cc(O)cc(O)c4c3=O)[C@H](O)[C@@H](O)[C@@H]2O)[C@H](O)[C@H](O)[C@H]1O [Rutin]
log K’ [3]: 0.24 | selectivity ratio at 24 h, 6 mM [8]: 0.4 | selectivity ratio at 24 h, 6 mM [4]: 1.3 | inhibition at 3 µM [5]: 33.9 ± 8.67% | solubility at 2 h [6]: 1840 ± 40 µM (≈ 1120 µg/mL) | inhibition at 3 µM [7]: 13.2 ± 3.39%

Kaempferol
O2^•– Inhibition [5]: 26.49 ± 8.41% | Elastase Inhibition [7]: 18.11 ± 9.01%

Naringenin
O2^•– Inhibition ([5]; 3 µM): 19.72 ± 8.23% | O2^•– Inhibition ([5]; listed as naringenin, 3 µM): 20% | Elastase Inhibition [7]: 17.97 ± 6.62%

Naringin
O2^•– Inhibition [5]: 21.51 ± 2.53% | Elastase Inhibition [7]: 13.89 ± 9.67%

Quercetin
O2^•– Inhibition [5]: 26.44 ± 8.07% | Elastase Inhibition ([7]; 3 µM): 29% and 28.67 ± 8.51%
